Results published in BindingDB's records for PubMed 8531090 (Roche Bioscience, 1995).
pKi: −log10 of the molar value. Positions of bridges follow the written chain, without caps; N, C: chain ends. Non-standard residues stand in square brackets, D forms with d. Residues, ends and D or L forms follow the SMILES beside them. Chains are numbered I, II in the order given. Dap = NC[C@H](N)C(=O)O

Target: T1, Neuropeptide Y receptor type 1 (Rattus norvegicus, UniProt P21555)
T1 sequence (P21555 whole entry): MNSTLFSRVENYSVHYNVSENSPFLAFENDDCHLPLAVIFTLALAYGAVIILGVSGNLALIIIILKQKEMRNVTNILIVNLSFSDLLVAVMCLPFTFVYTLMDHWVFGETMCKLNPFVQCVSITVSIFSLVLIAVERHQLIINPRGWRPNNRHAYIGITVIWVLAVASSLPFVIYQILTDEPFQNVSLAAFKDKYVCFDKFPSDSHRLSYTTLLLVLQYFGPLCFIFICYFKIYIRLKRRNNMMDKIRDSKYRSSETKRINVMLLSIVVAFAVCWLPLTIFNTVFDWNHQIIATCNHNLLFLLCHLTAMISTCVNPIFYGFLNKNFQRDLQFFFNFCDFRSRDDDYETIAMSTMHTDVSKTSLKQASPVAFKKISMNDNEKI

Q: How did the pKi turn out when `CC[C@H](C)[C@H](N)C(=O)N[C@H]1CCC(=O)NC[C@@H](C(=O)N[C@@H](Cc2ccc(O)cc2)C(=O)N[C@@H](CCCN=C(N)N)C(=O)N[C@@H](CC(C)C)C(=O)N[C@@H](CCCN=C(N)N)C(=O)N[C@@H](Cc2ccc(O)cc2)C(N)=O)NC(=O)[C@@H]2CCCN2C(=O)[C@@H](NC(=O)[C@@H](N)[C@@H](C)CC)CCC(=O)NC[C@@H](C(=O)N[C@@H](Cc2ccc(O)cc2)C(=O)N[C@@H](CCCN=C(N)N)C(=O)N[C@@H](CC(C)C)C(=O)N[C@@H](CCCN=C(N)N)C(=O)N[C@@H](Cc2ccc(O)cc2)C(N)=O)NC(=O)[C@@H]2CCCN2C1=O` [1229U91] (I: H-IEP[Dap]YRLRY-NH2 / II: H-IEP[Dap]YRLRY-NH2; amide I:2-II:4, I:4-II:2) was run?
A: The pKi was 7.90.
